According to ChEMBL document CHEMBL6127068, “Discovery of novel nitrofuran PROTAC-like compounds as dual inhibitors and degraders targeting STING” (Eur J Med Chem, 2024):
Active and inactive are the calls of the source. The calls are words filed in the database; no cut-off is given here.

Key:
[1] = target: T1, Protein cereblon/Stimulator of interferon genes protein (Homo sapiens, UniProt Q96SW2+Q86WV6); assay: PROTAC activity at CRBN/STING in human THP-1 cells assessed as induction of STING degradation at 10 uM incubated for 24 hrs by western blot analysis; assay type: cell-based
T1 sequence (Q86WV6 whole entry, looked up): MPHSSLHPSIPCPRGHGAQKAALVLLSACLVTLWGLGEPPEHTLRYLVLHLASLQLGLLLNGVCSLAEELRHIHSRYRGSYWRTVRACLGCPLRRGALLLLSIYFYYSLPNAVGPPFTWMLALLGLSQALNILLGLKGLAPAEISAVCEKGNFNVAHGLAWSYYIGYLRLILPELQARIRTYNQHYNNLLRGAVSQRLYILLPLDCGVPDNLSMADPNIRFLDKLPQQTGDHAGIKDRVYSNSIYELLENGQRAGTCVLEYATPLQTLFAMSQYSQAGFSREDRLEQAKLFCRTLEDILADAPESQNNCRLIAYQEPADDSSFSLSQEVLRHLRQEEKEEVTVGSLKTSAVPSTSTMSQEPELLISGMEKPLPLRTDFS
T1 sequence (Q96SW2 whole entry, looked up): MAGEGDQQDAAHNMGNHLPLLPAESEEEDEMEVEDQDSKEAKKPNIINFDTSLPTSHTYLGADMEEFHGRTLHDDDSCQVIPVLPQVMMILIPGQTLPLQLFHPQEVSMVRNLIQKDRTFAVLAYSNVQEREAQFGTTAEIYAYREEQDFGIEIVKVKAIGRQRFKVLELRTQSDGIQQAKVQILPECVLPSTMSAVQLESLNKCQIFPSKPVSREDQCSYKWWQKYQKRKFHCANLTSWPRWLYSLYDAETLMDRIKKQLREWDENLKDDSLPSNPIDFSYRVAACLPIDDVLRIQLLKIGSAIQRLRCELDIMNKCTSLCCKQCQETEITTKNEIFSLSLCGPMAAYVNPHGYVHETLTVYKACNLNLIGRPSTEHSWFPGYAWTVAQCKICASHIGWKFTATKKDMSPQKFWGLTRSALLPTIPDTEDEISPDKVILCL

[2] = target: T1, Protein cereblon/Stimulator of interferon genes protein; assay: PROTAC activity at CRBN/STING in human THP-1 cells assessed as induction of STING degradation at 10 uM by western blot analysis; assay type: cell-based; conditions: time 3-36 hrs, TDE = time-dependent effect
[3] = target: T1, Protein cereblon/Stimulator of interferon genes protein; assay: PROTAC activity at CRBN/STING in human THP-1 cells assessed as induction of STING degradation at 10 uM measured after 9 hrs by western blot analysis; assay type: cell-based
[4] = target: T1, Protein cereblon/Stimulator of interferon genes protein; assay: PROTAC activity at CRBN/STING in human THP-1 cells assessed as induction of STING degradation at 3 uM pretreated with lysosome inhibitor, bafilomycin for 1 hr followed by incubation with compound for 24 hrs by western blot analysis; assay type: cell-based
[5] = target: T1, Protein cereblon/Stimulator of interferon genes protein; assay: PROTAC activity at CRBN/STING in human THP-1 cells assessed as inhibition of cGAMP-induced TBK1 phosphorylation incubated for 24 hrs followed by stimulation with cGAMP for 24 hrs by western blot analysis; assay type: cell-based; conditions: dose 0.3-20 µM, time 48.0 hrs
[6] = target: T1, Protein cereblon/Stimulator of interferon genes protein; assay: PROTAC activity at CRBN/STING in human THP-1 cells assessed as inhibition of cGAMP-induced TNF-alpha mRNA expression incubated for 1 hr followed by stimulation with cGAMP for 24 hrs by qRT-PCR analysis; assay type: cell-based; conditions: dose 5-20 µM, time 25.0 hrs
[7] = target: T2, Protein cereblon/Stimulator of interferon genes protein (Mus musculus) (UniProt Q3TBT3+Q8C7D2); assay: PROTAC activity at CRBN/STING in mouse RAW264.7 cells assessed as induction of STING degradation at 0.33 to 30 uM incubated for 24 hrs by western blot analysis; assay type: cell-based; conditions: dose 0.33-30 µM
T2 sequence (Q8C7D2 whole entry, looked up, one chain of several): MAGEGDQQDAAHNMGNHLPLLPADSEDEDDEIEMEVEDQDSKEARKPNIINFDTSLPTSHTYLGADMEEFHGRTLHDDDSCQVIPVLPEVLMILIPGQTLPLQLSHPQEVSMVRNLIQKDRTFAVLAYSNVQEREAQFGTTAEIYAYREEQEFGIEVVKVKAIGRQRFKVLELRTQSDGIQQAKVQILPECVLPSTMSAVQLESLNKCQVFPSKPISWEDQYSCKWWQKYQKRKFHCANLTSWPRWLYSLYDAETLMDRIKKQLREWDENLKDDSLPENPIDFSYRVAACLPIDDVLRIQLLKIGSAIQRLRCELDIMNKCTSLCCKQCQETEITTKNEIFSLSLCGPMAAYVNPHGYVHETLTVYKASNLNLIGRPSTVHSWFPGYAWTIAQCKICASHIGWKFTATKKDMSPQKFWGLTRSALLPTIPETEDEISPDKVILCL

[8] = target: T3, Stimulator of interferon genes protein (Mus musculus) (UniProt Q3TBT3); assay: Inhibition of STING in mouse RAW264.7 cells assessed as reduction in SR717-induced TBK1 phosphorylation at 0.3 to 20 uM pretreated for 1 hr followed by stimulation with SR717 for 24 hrs by western blot analysis; assay type: cell-based; conditions: dose 0.3-20 µM, time 25.0 hrs
T3 sequence (whole entry): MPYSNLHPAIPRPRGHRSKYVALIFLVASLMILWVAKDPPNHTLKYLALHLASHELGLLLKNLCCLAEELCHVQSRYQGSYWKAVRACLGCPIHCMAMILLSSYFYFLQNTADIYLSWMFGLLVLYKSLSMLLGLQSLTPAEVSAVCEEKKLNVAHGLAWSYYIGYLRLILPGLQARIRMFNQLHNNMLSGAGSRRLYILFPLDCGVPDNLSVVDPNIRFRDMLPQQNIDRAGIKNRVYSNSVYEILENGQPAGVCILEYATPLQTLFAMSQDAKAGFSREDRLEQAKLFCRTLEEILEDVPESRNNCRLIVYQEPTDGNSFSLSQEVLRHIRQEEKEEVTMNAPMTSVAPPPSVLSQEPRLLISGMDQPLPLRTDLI

[9] = target: T3, Stimulator of interferon genes protein (Mus musculus); assay: Inhibition of STING in mouse RAW264.7 cells assessed as reduction in DMXAA-induced IL-6 mRNA expression at 5 to 20 uM pretreated for 1 hr followed by stimulation with DMXAA for 24 hrs by qRT-CPR analysis; assay type: cell-based; conditions: dose 5-20 µM, time 25.0 hrs
HUVEC = assay: Cytotoxicity against HUVEC assessed as effect on cell viability at <10 uM incubated for 48 hrs by MTT assay; assay type: toxicity, cell-based; conditions: human
HEK-293T = assay: Cytotoxicity against HEK293T cells assessed as effect on cell viability at <10 uM incubated for 48 hrs by MTT assay; assay type: toxicity, cell-based; conditions: human
Mus musculus [10] = assay: Anti-inflammatory activity against cisplatin-induced acute kidney injury C57BL/6J mouse model assessed as animal survival rate at 25 to 50 mg/kg measured at 72 hrs post-cisplatin administration (reference value: 66.7%); assay type: functional; conditions: dose 25-50 mg/kg
Mus musculus [11] = assay: Anti-inflammatory activity against cisplatin-induced acute kidney injury C57BL/6J mouse model assessed as decrease in plasma BUN level at 25 to 50 mg/kg; assay type: functional, organism-based; conditions: dose 25-50 mg/kg
Mus musculus [12] = assay: Anti-inflammatory activity against cisplatin-induced acute kidney injury C57BL/6J mouse model assessed as decrease in plasma creatinine level at 25 to 50 mg/kg; assay type: functional, organism-based; conditions: dose 25-50 mg/kg
Mus musculus [13] = assay: Anti-inflammatory activity against cisplatin-induced acute kidney injury C57BL/6J mouse model assessed as decrease in plasma uric acid level at 25 to 50 mg/kg; assay type: functional, organism-based; conditions: dose 25-50 mg/kg
Mus musculus [14] = assay: Anti-inflammatory activity against C57BL/6J mouse assessed as inhibition of cisplatin-induced hepatic impairment by measuring restoration of AST activity at 25 to 50 mg/kg; assay type: functional, organism-based; conditions: dose 25-50 mg/kg
[15] = target: T2, Protein cereblon/Stimulator of interferon genes protein (Mus musculus); assay: In vivo inhibition of STING signaling pathway in C57BL/6J mouse assessed as inhibition of cisplatin-induced IL-6 mRNA expression in kidney at 25 to 50 mg/kg by qPCR analysis; assay type: functional, organism-based; conditions: dose 25-50 mg/kg
[16] = target: T2, Protein cereblon/Stimulator of interferon genes protein (Mus musculus); assay: In vivo inhibition of STING signaling pathway in C57BL/6J mouse assessed as inhibition of cisplatin-induced IL-1 beta mRNA expression in kidney at 25 to 50 mg/kg by qPCR analysis; assay type: functional, organism-based; conditions: dose 25-50 mg/kg
[17] = target: T2, Protein cereblon/Stimulator of interferon genes protein (Mus musculus); assay: In vivo inhibition of STING signaling pathway in C57BL/6J mouse assessed as inhibition of cisplatin-induced ISG56 mRNA expression in kidney at 25 to 50 mg/kg by qPCR analysis; assay type: functional, organism-based; conditions: dose 25-50 mg/kg
Mus musculus [18] = assay: Anti-inflammatory activity against cisplatin-induced acute kidney injury C57BL/6J mouse model assessed as decrease in kidney damage at 25 to 50 mg/kg by Hematoxylin-Eosin staining based microscopic analysis; assay type: functional, organism-based; conditions: dose 25-50 mg/kg
[19] = Toxicity against cisplatin-induced acute kidney injury C57BL/6J mouse model assessed as effect on heart morphology at 25 to 50 mg/kg by Hematoxylin-Eosin staining based microscopic analysis; assay type: organism-based; conditions: in vivo, dose 25-50 mg/kg
[20] = target: T1, Protein cereblon/Stimulator of interferon genes protein; assay: PROTAC activity at CRBN/STING in human THP-1 cells assessed as inhibition of cGAMP-induced IL-6 mRNA expression incubated for 1 hr followed by stimulation with cGAMP for 24 hrs by qRT-PCR analysis; assay type: cell-based; conditions: dose 5-20 µM, time 25.0 hrs

SMILES: O=C1CCC(N2C(=O)c3cccc(OCc4cn(CCCCCC(=O)OCCc5ccc(NC(=O)c6ccc([N+](=O)[O-])o6)cc5)nn4)c3C2=O)C(=O)N1 (configuration not stated)
- Activity [1]: 82%
- Activity [2]: Tde
- Activity [3]: Active
- Activity [4]: inactive
- Activity [5]: Dose-Dependent Effect
- Activity [6]: Dose-Dependent Effect
- Activity [7]: inactive
- inhibition [8]: Dose-Dependent Effect
- inhibition [9]: Dose-Dependent Effect
- Activity (HUVEC): Non-Toxic
- Activity (HEK-293T): Non-Toxic
- Survival (Mus musculus [10]): 100%
- Activity (Mus musculus [11]): Active
- Activity (Mus musculus [12]): Active
- Activity (Mus musculus [13]): Active
- Activity (Mus musculus [14]): Active
- inhibition [15]: Active
- inhibition [16]: Active
- inhibition [17]: Active
- Activity (Mus musculus [18]): Active
- Activity [19]: Non-Toxic
- Activity [20]: Dose-Dependent Effect
